From patent US10968215B2 (SHANGHAI HAIHE PHARMACEUTICAL CO., LTD., priority 2016, dated 2021)
Where two headings read alike, the source gives them in different places.

How the values were obtained:
[1] = biological target: PRC2 complex (EZH2/EED/SUZ12/RbAp48/AEBP2) (Homo sapiens (Human), UniProt Q15910); assay: Activity of a compound to PRC2 complex (EZH2 wild type), ELISA; assay type: biochemical; settings: class symbols
[2] = biological target: PRC2 complex (EZH2 Y641F/EED/SUZ12/RbAp48/AEBP2) (Homo sapiens (Human), UniProt Q15910, Y641F); assay: Activity of a compound to PRC2 complex (EZH2 Y641F), HTRF
PRC2 complex (EZH2 Y641F/EED/SUZ12/RbAp48/AEBP2), sequence (Q15910 whole entry Y641F): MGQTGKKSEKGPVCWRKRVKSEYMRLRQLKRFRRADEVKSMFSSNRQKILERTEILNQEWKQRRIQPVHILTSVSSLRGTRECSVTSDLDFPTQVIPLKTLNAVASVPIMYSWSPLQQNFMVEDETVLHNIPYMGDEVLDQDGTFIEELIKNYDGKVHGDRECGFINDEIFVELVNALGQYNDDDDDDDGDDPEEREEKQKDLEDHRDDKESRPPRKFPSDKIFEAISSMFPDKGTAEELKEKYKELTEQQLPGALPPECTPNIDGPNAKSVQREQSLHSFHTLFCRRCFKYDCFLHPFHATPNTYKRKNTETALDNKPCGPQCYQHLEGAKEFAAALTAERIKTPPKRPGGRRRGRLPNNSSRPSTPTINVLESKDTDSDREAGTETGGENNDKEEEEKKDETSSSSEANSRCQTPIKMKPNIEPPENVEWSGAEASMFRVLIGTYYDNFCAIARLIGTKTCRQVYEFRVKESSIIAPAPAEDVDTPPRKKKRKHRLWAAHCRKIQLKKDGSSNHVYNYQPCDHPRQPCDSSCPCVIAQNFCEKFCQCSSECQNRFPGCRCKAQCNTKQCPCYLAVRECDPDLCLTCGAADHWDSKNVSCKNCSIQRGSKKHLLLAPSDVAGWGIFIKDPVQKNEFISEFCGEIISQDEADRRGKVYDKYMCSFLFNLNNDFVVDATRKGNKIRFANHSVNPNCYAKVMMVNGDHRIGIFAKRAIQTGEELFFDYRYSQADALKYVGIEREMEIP
PRC2 complex (EZH2 Y641F/EED/SUZ12/RbAp48/AEBP2), sequence (O75530 whole entry partner): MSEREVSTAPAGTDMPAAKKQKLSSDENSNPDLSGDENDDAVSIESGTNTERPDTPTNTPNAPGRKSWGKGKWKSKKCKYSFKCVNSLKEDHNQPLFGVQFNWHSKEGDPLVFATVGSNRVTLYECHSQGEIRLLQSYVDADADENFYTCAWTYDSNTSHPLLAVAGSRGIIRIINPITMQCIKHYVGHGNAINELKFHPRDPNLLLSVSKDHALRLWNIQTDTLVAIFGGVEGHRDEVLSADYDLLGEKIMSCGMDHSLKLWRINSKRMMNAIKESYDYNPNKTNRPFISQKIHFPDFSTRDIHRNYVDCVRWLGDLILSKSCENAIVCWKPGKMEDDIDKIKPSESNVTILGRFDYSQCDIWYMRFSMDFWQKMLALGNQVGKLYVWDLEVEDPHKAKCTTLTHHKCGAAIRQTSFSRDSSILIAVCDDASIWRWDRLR
PRC2 complex (EZH2 Y641F/EED/SUZ12/RbAp48/AEBP2), sequence (Q15022 whole entry partner): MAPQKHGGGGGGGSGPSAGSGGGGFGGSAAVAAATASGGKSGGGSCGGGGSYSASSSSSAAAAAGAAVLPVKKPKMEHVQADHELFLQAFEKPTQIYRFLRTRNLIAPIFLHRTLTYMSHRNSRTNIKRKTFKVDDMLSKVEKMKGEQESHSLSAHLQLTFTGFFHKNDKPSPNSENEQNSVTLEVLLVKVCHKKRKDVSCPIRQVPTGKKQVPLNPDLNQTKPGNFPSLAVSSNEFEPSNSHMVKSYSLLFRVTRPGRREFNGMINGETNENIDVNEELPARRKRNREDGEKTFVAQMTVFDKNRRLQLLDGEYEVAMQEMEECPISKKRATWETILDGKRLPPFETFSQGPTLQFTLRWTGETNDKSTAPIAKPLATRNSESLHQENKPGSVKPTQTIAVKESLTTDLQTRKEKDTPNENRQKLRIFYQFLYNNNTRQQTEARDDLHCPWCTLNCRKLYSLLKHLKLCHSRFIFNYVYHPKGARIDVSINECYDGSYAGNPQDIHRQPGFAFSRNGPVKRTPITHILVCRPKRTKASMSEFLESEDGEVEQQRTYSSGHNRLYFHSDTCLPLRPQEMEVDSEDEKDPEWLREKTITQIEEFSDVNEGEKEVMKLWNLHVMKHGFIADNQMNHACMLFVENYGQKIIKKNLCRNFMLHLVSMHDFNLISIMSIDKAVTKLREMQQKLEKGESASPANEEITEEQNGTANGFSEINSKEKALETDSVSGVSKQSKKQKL
PRC2 complex (EZH2 Y641F/EED/SUZ12/RbAp48/AEBP2), sequence (Q09028 whole entry partner): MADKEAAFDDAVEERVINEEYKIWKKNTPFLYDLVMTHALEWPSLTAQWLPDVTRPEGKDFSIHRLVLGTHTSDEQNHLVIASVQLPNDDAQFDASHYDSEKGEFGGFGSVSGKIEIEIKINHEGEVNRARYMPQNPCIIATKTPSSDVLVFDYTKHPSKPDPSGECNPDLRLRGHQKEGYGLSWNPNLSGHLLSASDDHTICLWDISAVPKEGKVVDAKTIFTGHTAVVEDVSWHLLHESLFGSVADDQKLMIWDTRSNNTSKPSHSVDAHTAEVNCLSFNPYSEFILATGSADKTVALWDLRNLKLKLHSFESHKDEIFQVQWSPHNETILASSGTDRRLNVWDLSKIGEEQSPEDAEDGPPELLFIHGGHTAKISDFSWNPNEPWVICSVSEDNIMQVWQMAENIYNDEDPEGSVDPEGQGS
PRC2 complex (EZH2 Y641F/EED/SUZ12/RbAp48/AEBP2), sequence (Q6ZN18 whole entry partner): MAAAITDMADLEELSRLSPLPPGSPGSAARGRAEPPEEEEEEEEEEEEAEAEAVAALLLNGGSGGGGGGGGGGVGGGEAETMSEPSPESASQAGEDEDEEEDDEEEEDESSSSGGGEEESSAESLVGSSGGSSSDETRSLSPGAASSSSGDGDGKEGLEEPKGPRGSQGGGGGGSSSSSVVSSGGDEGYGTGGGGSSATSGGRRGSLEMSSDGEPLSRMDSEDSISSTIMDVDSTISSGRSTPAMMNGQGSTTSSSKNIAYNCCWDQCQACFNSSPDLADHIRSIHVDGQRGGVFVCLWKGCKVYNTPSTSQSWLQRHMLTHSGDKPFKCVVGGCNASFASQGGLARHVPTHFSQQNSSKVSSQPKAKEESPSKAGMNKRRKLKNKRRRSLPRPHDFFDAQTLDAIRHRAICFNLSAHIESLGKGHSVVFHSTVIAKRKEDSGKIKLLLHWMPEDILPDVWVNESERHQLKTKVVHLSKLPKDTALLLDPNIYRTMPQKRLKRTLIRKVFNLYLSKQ

[3] = read-out: IC50 (EZH2_Y641F), EZH2 Y641F PRC2 complex, HTRF, class symbols

PRC2 complex (EZH2/EED/SUZ12/RbAp48/AEBP2), sequence (Q15910 whole entry): as the sequence (Q15910 whole entry Y641F) above, with F641Y counted along it
PRC2 complex (EZH2/EED/SUZ12/RbAp48/AEBP2), sequence (O75530 whole entry partner): as the sequence (O75530 whole entry partner) above
PRC2 complex (EZH2/EED/SUZ12/RbAp48/AEBP2), sequence (Q15022 whole entry partner): as the sequence (Q15022 whole entry partner) above
PRC2 complex (EZH2/EED/SUZ12/RbAp48/AEBP2), sequence (Q09028 whole entry partner): as the sequence (Q09028 whole entry partner) above
PRC2 complex (EZH2/EED/SUZ12/RbAp48/AEBP2), sequence (Q6ZN18 whole entry partner): as the sequence (Q6ZN18 whole entry partner) above

Compound | IC50 [1] [nM] | IC50 [2, 3] [nM] | IC50 [2] [nM]
Cc1cc(C)c(CNC(=O)c2cc3cccn3c(C(C)OCc3nccs3)c2C)c(=O)[nH]1 (centres unmarked) [Example 18, N-((4,6-dimethyl-2-oxo-1,2-dihydropyridin-3-yl)methyl)-6-methyl-5-(1-(thiazole-2-ylmethoxy)ethyl)indolizine-7-carboxamide] | 100 to 1000 | < 100 | –
C#CCOC(C)c1c(C)c(C(=O)NCc2c(C)cc(C)[nH]c2=O)cc2cccn12 (centres unmarked) [Example 4, N-((4,6-dimethyl-2-oxo-1,2-dihydropyridin-3-yl)methyl)-6-methyl-5-(1-(prop-2-yn-1-yloxy)ethyl)indolizine-7-carboxamide] | 100 to 1000 | 100 to 1000 | –
Cc1cc(C)c(CNC(=O)c2cc3c(-c4ccc(N)nc4)ccn3c(C(C)N3CCN(CC(F)(F)F)CC3)c2C)c(=O)[nH]1 (centres unmarked) [Compound 158, 1-(6-aminopyridin-3-yl)-N-((4,6-dimethyl-2-oxo-1,2-dihydropyridin-3-yl)methyl)-6-methyl-5-(1-(4-(2,2,2-trifluoroethyl)piperazin-1-yl)ethyl)indolizine-7-carboxamide] | < 100 | – | < 100
Cc1cc(C)c(CNC(=O)c2cc3c(-c4ccc(N)nc4)ccn3c([C@H](C)N3CCN(CC(F)(F)F)CC3)c2C)c(=O)[nH]1 (single isomer, unassigned) [Compound 159, (S)-1-(6-aminopyridin-3-yl)-N-((4,6-dimethyl-2-oxo-1,2-dihydropyridin-3-yl)methyl)-6-methyl-5-(1-(4-(2,2,2-trifluoroethyl)piperazin-1-yl)ethyl)indolizine-7-carboxamide or (R) 1-(6-aminopyridin-3-yl)-N-((4,6-dimethyl-2-oxo-1,2-dihydropyridin-3-yl)methyl)-6-methyl-5-(1-(4-(2,2,2-trifluoroethyl)piperazin-1-yl)ethyl)indolizine-7-carboxamide] | < 100 | < 100 | –
Cc1cc(C)c(CNC(=O)c2cc3cc(Br)cn3c(N(C)C3CCOCC3)c2C)c(=O)[nH]1 [Example 57] | < 100 | – | –
Cc1cc(C)c(CNC(=O)c2cc3cccn3c(N(C)C3CCOCC3)c2C)c(=O)[nH]1 [Example 55, N-((4,6-dimethyl-2-oxo-1,2-dihydropyridin-3-yl)methyl)-6-methyl-5-(methyl(tetrahydro-2H-pyran-4-yl)amino)indolizine-7-carboxamide] | 100 to 1000 | 100 to 1000 | –
COc1cc(C)[nH]c(=O)c1CNC(=O)c1cc2c(-c3ccnc(Cl)c3)ccn2c([C@H](C)N2CCN(CC(F)(F)F)CC2)c1C (single isomer, unassigned) [Compound 168, (S)-1-(2-chloropyridin-4-yl)-N-((4-methoxy-6-methyl-2-oxo-1,2-dihydropyridine-3-yl)methyl)-6-methyl-5-(1-(4-(2,2,2-trifluoroethyl)piperazin-1-yl)ethyl)indolizine-7-carboxamide or (R) 1-(2-chloropyridin-4-yl)-N-((4-methoxy-6-methyl-2-oxo-1,2-dihydropyridine-3-yl)methyl)-6-methyl-5-(1-(4-(2,2,2-trifluoroethyl)piperazin-1-yl)ethyl)indolizine-7-carboxamide] | – | 100 to 1000 | –
COc1cc(C)[nH]c(=O)c1CNC(=O)c1cc2c(-c3ccc(N)nc3)ccn2c(C(C)N2CCN(CC(F)(F)F)CC2)c1C (centres unmarked) [Compound 157] | – | < 100 | –

Second part, the compound after the results:

IC50 [1] [nM] | IC50 [2, 3] [nM] | IC50 [2] [nM] | Compound
100 to 1000 | 100 to 1000 | – | Cc1cc(C)c(CNC(=O)c2cc3cccn3c(C(C)OCc3c(F)cccc3F)c2C)c(=O)[nH]1 (centres unmarked) [Example 13]
100 to 1000 | 100 to 1000 | – | Cc1cc(C)c(CNC(=O)c2cc3cccn3c(C(C)OCc3ccc(F)cc3)c2C)c(=O)[nH]1 (centres unmarked) [Example 10]
100 to 1000 | 100 to 1000 | – | Cc1cc(C)c(CNC(=O)c2cc3cccn3c(C(C)OCc3ccccc3F)c2C)c(=O)[nH]1 (centres unmarked) [Example 11]
100 to 1000 | 100 to 1000 | – | Cc1cc(C)c(CNC(=O)c2cc3cccn3c(C(C)OCc3ccsc3)c2C)c(=O)[nH]1 (centres unmarked) [Example 19, N-((4,6-dimethyl-2-oxo-1,2-dihydropyridin-3-yl)methyl)-6-methyl-5-(1-(thiophene-3-ylmethoxy)ethyl)indolizine-7-carboxamide]
100 to 1000 | 100 to 1000 | – | Cc1cc(C)c(CNC(=O)c2cc3cccn3c(C(C)OCc3cccc(F)c3)c2C)c(=O)[nH]1 (centres unmarked) [Example 12]
< 100 | 100 to 1000 | – | Cc1cc(C)c(CNC(=O)c2cc3cccn3c(C(C)c3ccccc3)c2C)c(=O)[nH]1 (centres unmarked) [Example 25, N-((4,6-dimethyl-2-oxo-1,2-dihydropyridin-3-yl)methyl)-6-methyl-5-(1-phenylethyl)indolizine-7-carboxamide]
100 to 1000 | 100 to 1000 | – | Cc1cc(C)c(CNC(=O)c2cc3cccn3c(C(C)OCc3ccn(C)n3)c2C)c(=O)[nH]1 (centres unmarked) [Example 20]
100 to 1000 | 100 to 1000 | – | COc1cccc(COC(C)c2c(C)c(C(=O)NCc3c(C)cc(C)[nH]c3=O)cc3cccn23)c1 (centres unmarked) [Example 14, N-((4,6-dimethyl-2-oxo-1,2-dihydropyridin-3-yl)methyl)-5-(1-((3-methoxybenzyl)oxy)ethyl)-6-methylindolizine-7-carboxamide]
